The values below come from PMC8391312 (Biomedicines, 2021).

SMILES strings stand for the structures.

The test system of the experiment is Cav1.2/1.3 channels. The experiment is classed as cell-based, rat.

On to `[Cl][Cd][Cl]` [Cd^2+, CdCl2], for which the “block of current amplitude” value is listed as 98 ± 0.8%.
